Test results as given in US20190358181A1, “METHODS FOR AUTISM SPECTRUM DISORDER PHARMACOTHERAPY” (priority 2017, published 2019).

System: males with ASD
Assay: Expressive One Word Picture Vocabulary Test (EOWPVT), SAT-1 trial
Assay type: in vivo, human
Protocol: Two observational examinations were performed by a clinician at 3 time points: baseline (56±8 days; mean±SEM; before the infusion), 2-days post-infusion, and 6-weeks post-infusion. The two examiner-based metrics were the Autism Diagnostic Observation Schedule, 2nd edition (ADOS-2) with video and audio files recorded on 3 cameras, and the Expressive One Word Picture Vocabulary Testing (EOWPVT). Both of these observational metrics were administered by a trained and certified examiner using approved test materials. Three standardized questionnaires were completed by parents at 3 time points: baseline, 7-days post-infusion, and 6-weeks post-infusion. The three standardized questionnaires completed by parents were the 58-question Aberrant Behavior Checklist (ABC), the 75-item Autism Treatment Evaluation Checklist (ATEC), and the 33-item repetitive behavior questionnaire (RBQ). Parents were asked to complete these three instruments with reference to how their child behaved in the previous 7 days. […]
Behavioral and neurological effects of treatment were assessed primarily by the examiner-based ADOS-2 protocol scores and standardized vocabulary testing (Expressive One Word Picture Vocabulary Test, EOWPVT), with secondary evaluation via parent-based assessments (Aberrant Behavior Checklist (ABC) scores, Autism Treatment Evaluation Checklist (ATEC) scores, Clinical Global Impression of Improvement (CGI) scores, and Repetitive Behavior Questionnaire (RBQ) scores). […] Examiner-based outcomes (ADOS and EOWPVT) were assessed at 2-days and 6-weeks after the infusion. Parent-based outcomes (ABC, ATEC, CGI, and RBQ) were assessed at 7-days and 6-weeks after the infusion. […]
Each child was used as their own control to examine before and after treatment effects from Example 1 in a paired t-test design for the analysis of the ADOS, EOWPVT, ABC, ATEC, RBQ (FIGS. 4-11 show individual analyses), and blood and urine safety data (FIGS. 2 and 3 show individual analyses). […] Categorical data, such as the presence or absence of adverse events or historical symptoms was analyzed by Fisher's exact test. […]

[1] = EOWPVT Vocabulary, 45 days after treatment

Cc1ccc(C(=O)Nc2ccc(S(=O)(=O)O)c3cc(S(=O)(=O)O)cc(S(=O)(=O)O)c23)cc1NC(=O)c1cccc(NC(=O)Nc2cccc(C(=O)Nc3cc(C(=O)Nc4ccc(S(=O)(=O)O)c5cc(S(=O)(=O)O)cc(S(=O)(=O)O)c45)ccc3C)c2)c1 [Suramin, suramin]
Difference from baseline (mean ± sd) [1]: −4.2 ± 8.3
d (Cohen's d) [1]: −0.51
EOWPVT scores (after single 20 mg/kg IV dose): did not change
